Data on 17 compounds can be found in patent US7994185B2, “Benzene sulfonamide thiazole and oxazole compounds” (Glaxo Smith Kline LLC, priority 2008, dated 2011).

pIC50: −log10 of the molar value. Read-outs that look alike come from different tables or passages of the source.

Experiment [1] relates to Human colon tumor cells (Colo205). The experiment is described as follows: Cell growth inhibition assay (CellTiter-Glo), Colo205. The class given is cell-based. Conditions: COLO 205, Table 2b, later runs, average for the one or more runs, categorized, read-out: IC50 for Colo205. In short, it runs like this:
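Growth is estimated from total cellular ATP measured by CellTiter-Glo luminescence after a 3-day compound exposure at 37 °C. Compounds are tested as 1:3 dilution series in 0.2% final DMSO, with inhibition expressed relative to vehicle-treated wells.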

For experiment [2], the system named is Human melanoma cancer cells (SK-MEL-28). The experiment is described as follows: Cell growth inhibition assay (CellTiter-Glo), SK-MEL-28. The experiment is classed as cell-based. The settings on record: SK-MEL-28, Table 3b, later runs, average for the one or more runs, categorized, read-out: IC50 for SK-MEL-28. Background: ATP-based viability assays read luminescence as a measure of living cells.

Experiment [3] addresses T1, BRAFV600E full-length (amino acids 2-766) (Homo sapiens, UniProt P15056, V600E).
T1 construct: His6-tagged BRAFV600E full-length (amino acids 2-766); His6; made in house; host or cells: baculovirus expression system (insect cells)
The experiment is described as follows: B-Raf Accelerated MEK ATPase assay (BRAMA). The settings on record: later runs, average pIC50 for the one or more runs, categorized; for IC50: Table 1b, read-out: B-Raf pIC50 (converted); for pIC50: B-Raf pIC50, Table 1b. The experiment is classed as biochemical. In short, it runs like this:
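Coupled-enzyme readout: ADP generated by MEK-mediated ATP hydrolysis, uncoupled from ERK phosphorylation, is linked to NADH oxidation through pyruvate kinase and lactate dehydrogenase.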

T1 sequence (P15056 2-766 V600E): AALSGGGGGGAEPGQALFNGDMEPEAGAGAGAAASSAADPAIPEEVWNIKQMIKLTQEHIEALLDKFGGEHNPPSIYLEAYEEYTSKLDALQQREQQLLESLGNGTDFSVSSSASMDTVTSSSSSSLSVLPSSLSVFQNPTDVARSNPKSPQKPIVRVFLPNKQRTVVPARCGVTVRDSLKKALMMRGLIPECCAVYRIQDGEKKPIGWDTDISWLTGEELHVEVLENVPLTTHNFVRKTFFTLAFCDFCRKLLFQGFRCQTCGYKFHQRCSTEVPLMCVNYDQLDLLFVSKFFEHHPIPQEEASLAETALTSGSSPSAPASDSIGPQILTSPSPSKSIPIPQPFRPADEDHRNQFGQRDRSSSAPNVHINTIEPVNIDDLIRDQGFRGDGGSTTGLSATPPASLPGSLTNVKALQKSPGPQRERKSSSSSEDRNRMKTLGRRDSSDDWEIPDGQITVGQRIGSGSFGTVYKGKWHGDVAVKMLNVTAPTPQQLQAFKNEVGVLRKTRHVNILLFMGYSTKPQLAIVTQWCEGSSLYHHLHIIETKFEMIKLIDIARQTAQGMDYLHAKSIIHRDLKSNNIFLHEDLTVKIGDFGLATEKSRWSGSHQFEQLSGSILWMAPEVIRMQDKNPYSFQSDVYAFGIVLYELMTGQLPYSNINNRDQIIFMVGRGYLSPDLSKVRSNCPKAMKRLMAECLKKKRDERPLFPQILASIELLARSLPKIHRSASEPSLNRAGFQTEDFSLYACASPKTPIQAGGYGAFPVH

Consider `Cc1nccc(-c2sc(C(C)(C)C)nc2-c2cccc(NS(=O)(=O)c3c(F)cccc3F)c2Cl)n1` [Example 239, N-{2-chloro-3-[2-(1,1-dimethylethyl)-5-(2-methyl-4-pyrimidinyl)-1,3-thiazol-4-yl]phenyl}-2,6-difluorobenzenesulfonamide], for which the negative-log IC50 (pIC50) in experiment [1] and in experiment [2] was > 7.00 in each case. For the same compound, the IC50 in experiment [3] is 3.16 to 31.6 nM.

For the compound `O=S(=O)(Nc1cccc(-c2nc(N3CCOCC3)sc2-c2ccncn2)c1Cl)c1cc(F)ccc1F` [Example 240, N-{2-chloro-3-[2-(4-morpholinyl)-5-(4-pyrimidinyl)-1,3-thiazol-4-yl]phenyl}-2,5-difluorobenzenesulfonamide], the negative-log IC50 (pIC50) was > 7.00 in experiment [1], > 7.00 in experiment [2] and ≥ 8.50 in experiment [3].

For the compound `CC(C)(C)c1nc(-c2cccc(NS(=O)(=O)c3cc(F)ccc3F)c2Cl)c(-c2ccnc(N)n2)s1` [Example 241, N-{3-[5-(2-amino-4-pyrimidinyl)-2-(1,1-dimethylethyl)-1,3-thiazol-4-yl]-2-chlorophenyl}-2,5-difluorobenzenesulfonamide], the results for the pIC50 in experiment [1], in experiment [2] and in experiment [3] were > 7.00, > 7.00 and ≥ 8.50, respectively.

Take `Nc1nccc(-c2sc(C3CCOCC3)nc2-c2cccc(NS(=O)(=O)c3cc(F)ccc3F)c2Cl)n1` [Example 242, N-{3-[5-(2-amino-4-pyrimidinyl)-2-(tetrahydro-2H-pyran-4-yl)-1,3-thiazol-4-yl]-2-chlorophenyl}-2,5-difluorobenzenesulfonamide]: the negative-log IC50 (pIC50) in experiment [1] is > 7.00; in experiment [2] it was > 7.00; in experiment [3], ≥ 8.50.

On to `O=S(=O)(Nc1cccc(-c2nc(C3CCOCC3)sc2-c2ccncn2)c1Cl)c1cc(F)ccc1F` [Example 243, N-{2-chloro-3-[5-(4-pyrimidinyl)-2-(tetrahydro-2H-pyran-4-yl)-1,3-thiazol-4-yl]phenyl}-2,5-difluorobenzenesulfonamide], for which the negative-log IC50 (pIC50) in experiment [1] is > 7.00; in experiment [2], > 7.00; in experiment [3], ≥ 8.50.

On to `O=S(=O)(Nc1cccc(-c2nc(C3CCOCC3)sc2-c2ccncn2)c1F)c1cc(F)ccc1F` [Example 244, 2,5-difluoro-N-{2-fluoro-3-[5-(4-pyrimidinyl)-2-(tetrahydro-2H-pyran-4-yl)-1,3-thiazol-4-yl]phenyl}benzenesulfonamide], for which the pIC50 in experiment [1] was > 7.00; in experiment [2], > 7.00; in experiment [3], ≥ 8.50.

As for `Nc1nccc(-c2sc(C3CCOCC3)nc2-c2cccc(NS(=O)(=O)c3cc(F)ccc3F)c2F)n1` [Example 245, N-{3-[5-(2-amino-4-pyrimidinyl)-2-(tetrahydro-2H-pyran-4-yl)-1,3-thiazol-4-yl]-2-fluorophenyl}-2,5-difluorobenzenesulfonamide], the negative logarithm of the IC50 (pIC50) is > 7.00 in experiment [1], > 7.00 in experiment [2] and ≥ 8.50 in experiment [3].

Consider `Cc1nccc(-c2sc(C3CCOCC3)nc2-c2cccc(NS(=O)(=O)c3cc(F)ccc3F)c2F)n1` [Example 246, 2,5-difluoro-N-{2-fluoro-3-[5-(2-methyl-4-pyrimidinyl)-2-(tetrahydro-2H-pyran-4-yl)-1,3-thiazol-4-yl]phenyl}benzenesulfonamide], for which the pIC50 in experiment [1] and in experiment [2] was > 7.00 throughout. The IC50 in experiment [3] is 3.16 to 31.6 nM.

In the case of `CC(C)(C)c1nc(-c2cccc(NS(=O)(=O)c3c(F)cccc3F)c2F)c(-c2ccnc(CCCO)n2)s1` [Example 247, N-(3-{2-(1,1-dimethylethyl)-5-[2-(3-hydroxypropyl)-4-pyrimidinyl]-1,3-thiazol-4-yl}-2-fluorophenyl)-2,6-difluorobenzenesulfonamide], the pIC50 in experiment [1] and in experiment [2] was > 7.00 throughout. In addition, in experiment [3], the IC50 was 3.16 to 31.6 nM.

Regarding `CC(C)(O)CCc1nccc(-c2sc(N3CCOCC3)nc2-c2cccc(NS(=O)(=O)c3cc(F)ccc3F)c2F)n1` [Example 248, 2,5-difluoro-N-{2-fluoro-3-[5-[2-(3-hydroxy-3-methylbutyl)-4-pyrimidinyl]-2-(4-morpholinyl)-1,3-thiazol-4-yl]phenyl}benzenesulfonamide], the pIC50 in experiment [1] and in experiment [2] was > 7.00 each time. The IC50 in experiment [3] is 3.16 to 31.6 nM.

As for `CC(C)(O)CCc1nccc(-c2sc(C(C)(C)C)nc2-c2cccc(NS(=O)(=O)c3c(F)cccc3F)c2F)n1` [Example 249, N-(3-{2-(1,1-dimethylethyl)-5-[2-(3-hydroxy-3-methylbutyl)-4-pyrimidinyl]-1,3-thiazol-4-yl}-2-fluorophenyl)-2,6-difluorobenzenesulfonamide], the pIC50 in experiment [1] and in experiment [2] was > 7.00 in each case. Further, in experiment [3], the IC50 is 3.16 to 31.6 nM.

`CC(C)(O)CCc1nccc(-c2sc(C(C)(C)C)nc2-c2cccc(NS(=O)(=O)c3cc(F)ccc3F)c2F)n1` [Example 250, N-(3-{2-(1,1-dimethylethyl)-5-[2-(3-hydroxy-3-methylbutyl)-4-pyrimidinyl]-1,3-thiazol-4-yl}-2-fluorophenyl)-2,5-difluorobenzenesulfonamide]: the pIC50 was > 7.00 in experiment [1] and 6.00 to 7.00 in experiment [2]. Also, the IC50 in experiment [3] is 3.16 to 31.6 nM.

As for `CC(C)(C)c1nc(-c2cccc(NS(=O)(=O)c3c(F)cccc3F)c2F)c(-c2ccnc(CCS(C)(=O)=O)n2)s1` [Example 251, N-[3-(2-(1,1-dimethylethyl)-5-{2-[2-(methylsulfonyl)ethyl]-4-pyrimidinyl}-1,3-thiazol-4-yl)-2-fluorophenyl]-2,6-difluorobenzenesulfonamide], the pIC50 in experiment [1] and in experiment [2] was > 7.00 throughout. Further, in experiment [3], the IC50 is 3.16 to 31.6 nM.

Regarding `CC(C)(C)c1nc(-c2cccc(NS(=O)(=O)c3cc(F)ccc3F)c2Cl)c(-c2ccnc(CCS(C)(=O)=O)n2)s1` [Example 252, N-[2-chloro-3-(2-(1,1-dimethylethyl)-5-{2-[2-(methylsulfonyl)ethyl]-4-pyrimidinyl}-1,3-thiazol-4-yl)phenyl]-2,5-difluorobenzenesulfonamide], the figures for the negative-log IC50 (pIC50) in experiment [1], in experiment [2] and in experiment [3] were > 7.00, > 7.00 and ≥ 8.50, respectively.

In the case of `Cc1nccc(-c2sc(N3CCS(=O)(=O)CC3)nc2-c2cccc(NS(=O)(=O)c3cc(F)ccc3F)c2F)n1` [Example 253, N-{3-[2-(1,1-dioxido-4-thiomorpholinyl)-5-(2-methyl-4-pyrimidinyl)-1,3-thiazol-4-yl]-2-fluorophenyl}-2,5-difluorobenzenesulfonamide], the pIC50 in experiment [1] and in experiment [2] was > 7.00 in each case. Moreover, the IC50 in experiment [3] was 3.16 to 31.6 nM.

For the compound `CC(C)(C)c1nc(-c2cccc(NS(=O)(=O)c3cc(F)ccc3F)c2F)c(-c2ccnc(CCC(=O)N3CCOCC3)n2)s1` [Example 254, N-[3-(2-(1,1-dimethylethyl)-5-{2-[3-(4-morpholinyl)-3-oxopropyl]-4-pyrimidinyl}-1,3-thiazol-4-yl)-2-fluorophenyl]-2,5-difluorobenzenesulfonamide], the negative logarithm of the IC50 (pIC50) was 6.00 to 7.00 in experiment [1] and > 7.00 in experiment [2]. For the same compound, the IC50 in experiment [3] is 3.16 to 31.6 nM.

For `CC(C)(C)c1nc(-c2cccc(NS(=O)(=O)c3cc(F)ccc3F)c2F)c(-c2ccnc(CCC(=O)N3CCS(=O)(=O)CC3)n2)s1` [Example 255, N-[3-(2-(1,1-dimethylethyl)-5-{2-[3-(1,1-dioxido-4-thiomorpholinyl)-3-oxopropyl]-4-pyrimidinyl}-1,3-thiazol-4-yl)-2-fluorophenyl]-2,5-difluorobenzenesulfonamide], the negative logarithm of the IC50 (pIC50) in experiment [1] and in experiment [2] was > 7.00 in each case. Also, the IC50 in experiment [3] was 3.16 to 31.6 nM.

The term pIC50 denotes the IC50 on a negative log10 scale, so that one unit is a factor of ten.
